Results on 6 compounds are retold here after patent US20040087561A1, “Treatment of sexual dysfunction” (priority 2000, published 2004).

Where two headings read alike, the source gives them in different places.

One assay has as its target T1, human NMB receptor (BB1) (Homo sapiens, UniProt P28336).
T1 construct: expressed in transfected cells; host or cells: CHO-K1
Description: BB1 binding assay ([125I][Tyr4]bombesin, CHO-K1 cell membranes). Here is the method: In the following experiments, measurement of BB1 and BB2 binding was as follows. CHO-K1 cells stably expressing cloned human NMB (for (BB1 assay) and GRP receptors (for BB2 assay) were routinely grown in Ham's F12 culture medium supplemented with 10% foetal calf serum and 2 mM glutamine. For binding experiments, cells were harvested by trypsinization, and stored frozen at −70° C. in Ham's F12 culture medium containing 5% DMSO until required. On the day of use, cells were thawed rapidly, diluted with an excess of culture medium, and centrifuged for 5 minutes at 2000 g. Cells were resuspended in 50 mM Tris-HCl assay buffer (pH 7.4 at 21° C., containing 0.02% BSA, 40 μg/mL bacitracin, 2 μg/mL chymostatin, 4 μg/mL leupeptin, and 2 μM phosphoramidon), counted, and polytronned (setting 5, 10 sec) before centrifuging for 10 minutes at 28,000 g. The final pellet was resuspended in assay buffer to a final cell concentration of 1.5×10^5/mL. For binding assays, 200 μL aliquots of membranes were incubated with [^125I][Tyr^4]bombesin (<0.1 nM) in the presence and absence of test compounds (final assay volume 250 μL) for 60 minutes and 90 minutes for NMB and GRP receptors, respectively. Nonspecific binding was defined by 1 μM bombesin. Assays were terminated by rapid filtration under vacuum onto Whatman GF/C filters presoaked in 0.2% PEI for >2 hours, and washed 50 mM Tris-HC (pH 6.9 at 21° C.; 6×1 mL). Radioactivity bound was determined using a gamma counter.
All competition data was analysed using nonlinear regression utilizing iterative curve-plotting procedures in Prism® (GraphPad Software Inc., San Diego, USA). IC50 values were corrected to Ki values using the Cheng-Prusoff equation (Cheng Y., PrusoffW. H., Biochem. Pharmacol. 22: 3099-3108, 1973).

In assay [1] the test system is ovariectomised female Sprague Dawley rats. Description: Female rat sexual proceptivity (time investigating male vs female stimulus). It is filed as in vivo. As to conditions: for MED, percentage of time spent investigating the male stimulus (proceptivity) / percentage of time spent investigating the male stimulus (proceptivity): 1 h before test. Here is the method:
(§1) Ovariectomised adult female Sprague Dawley rats (180-200 g, from Charles River) were housed in groups of 6 in a reversed lighting system of 12 h light:dark (lights off 7.00-19.00 h). Two weeks after ovariectomy they were used for sexual activity tests. The experiments started at least 5 h into the dark period.
Tests were carried out in a circular arena of 90 cm diameter, surrounded by a 30 cm high wall. Two small cages with wire-mesh front (15×15 cm) are fixed into the wall such that the front of the cage is <> with the wall and the 2 cages are opposite each other. They contained two stimuli animals: an intact sexually experienced male and a receptive female (ovariectomised, primed with 5 μg oestradiol benzoate dissolved in corn oil and injected subcutaneously 48 hours before the test and with 0.5 mg of progesterone four hours before the test). Sexually naive test and control animals were used. Forty eight hours before the tests, both the test and control animals were primed with 5 μg oestradiol benzoate. For animals used as positive controls, progesterone (0.5 mg/0.1 ml) was dissolved in corn oil and administered subcutaneously (s.c.), 4 h before the test. Test and control animals were introduced one at a time for 10 minute periods into the arena. During the 10 min test, the time that the test or positive control animal spent investigating each stimulus animal was noted. The arena was thoroughly cleaned between animals. The position of the male/female stimuli boxes was randomised between animals, in order to avoid place preference. The difference in the percentage of time spent investigating the male minus the female stimuli was calculated, out of the total time spent investigating stimuli animals.
Compound (1) was dissolved in 100% β-cyclodextrin and then diluted with saline to a final solution of 50% 2-hydroxypropyl-β-cyclodextrin. It was administered intraperitoneally (i.p.) at doses of 3 and 10 mg/kg, in a dosing volume of 1 ml/kg, 1 h before tests. Progesterone (0.5 mg/0.1 ml) was dissolved in corn oil and administered subcutaneously (s.c.), 4 h before test, as a positive control.
Ovariectomised adult female Sprague Dawley rats (180-200 g) were housed in groups of 5 in a reversed lighting system of 12 h light:dark (lights off 5.00-17.00 h). They were used for the experiments at least two weeks after ovariectomy. Forty eight hours before tests, the animals were primed with oestradiol benzoate (5 μg/0.1 ml in corn oil, s.c.). On day 1, progesterone (0.5 mg/0.1 ml, in corn oil, s.c.) was administered to one of the groups 4 h before tests, as a positive control. Compound (1) (15 mg/kg, i.p.) was administered in 50% 2-hydroxypropyl-β-cyclodextrin, 1 h before tests. The test lasted 10 minutes and was carried out as described before. The difference in the percentage of time spent investigating the male minus the female stimuli was calculated, out of the total time spent investigating stimuli animals. Animals were submitted to a test on day 1 and on day 15. From day 2 to 14 the Compound (1) group received a daily injection of the compound (15 mg/kg, i.p.), while both the vehicle and the progesterone groups received an injection of vehicle. On day 15 the test took place again, as described for day 1.
Ovariectomised female rats (Sprague Dawley, obtained from Charles River, UK) were stereotaxically implanted (coordinates 0.89 mm behind Bregma, 1.3 mm lateral and 2.5 mm vertical) with stainless steel cannulae (6 mm long, O.D. 0.75 mm), held in place with dental cement. Animals were housed in groups of three and returned to a reversed lighting system of 12 h light:dark (lights off 5.00-17.00 h). Correct placement of the cannulae was assessed post-mortem. Rats were used for tests two weeks after ovariectomy (one week after cannulation). The experiments started at least 5 h into the dark period. […]

The test system is the same in assay [2]. Description: Female rat sexual receptivity (lordosis quotient). It is filed as in vivo. Conditions: for lordosis quotient (LQ) compared to LQ before administration: quinelorane 6.25 μg/kg s.c., 90 min. Here is the method:
as §1
Compound (1) was dissolved in 100% β-cyclodextrin and then diluted with saline to a final solution of 50% 2-hydroxypropyl-β-cyclodextrin. It was administered intraperitoneally (i.p.) at a dose of 10 mg/kg, in a dosing volume of 1 ml/kg. Quinelorane (6.25 μg/kg) was dissolved in water and administered s.c. as positive control. Forty eight hours before testing, ovariectomised female rats (as described above), were primed with 5 μg oestradiol benzoate dissolved in corn oil and injected subcutaneously. […] The females were placed with a series of vigorous male rats and subjected to 10 mounts.
The lordotic response of the animal was recorded and expressed as a percentage of the mounts (i.e. lordosis quotient, LQ), as previously described. Animals showing LQ<20 were considered non-receptive and were included in the study. Each rat was tested prior to administration of the compound and then tested similarly post-injection. The pre-treatment times were 1 h for Compound (1) and vehicle (50% β-cyclodextrin, i.p.) or 90 min for quinelorane.
The above compound was dissolved in PEG200 vehicle and administered orally. Quinelorane dihydrochloride (LY 163,502, 6.25 μg/kg) was dissolved in water and administered subcutaneously (s.c.), as a positive control. Both compounds were administered in a 1 ml/kg volume.
Forty eight hours before tests, the animals were primed with 5 μg oestradiol benzoate (Sigma Chemical. Co. Ltd., UK) dissolved in corn oil and injected subcutaneously. The females were placed with a series of vigorous male rats and subjected to 10 mounts. The lordotic response of the animal was recorded and expressed as a percentage of the mounts (i.e. lordosis quotient, LQ). […] Animals showing higher LQ were not included in the study. Each rat was tested prior to administration of the compound and then tested similarly at 1 h and 90 min post-injection of the above compound or quinelorane respectively.

For another assay, the system named is Sprague Dawley male rats. In words: Sexual behaviour of sexually dysfunctional (fluoxetine-treated) male rats. Conditions: fluoxetine 20 mg/kg i.p. 3 days (vs vehicle+vehicle); day 4 Compound (1) 15 mg/kg or yohimbine 2 mg/kg i.p. 1 h before test (vs fluoxetine+vehicle). It is filed as in vivo, rat. Here is the method:
Sprague Dawley male rats (Charles River, UK) were kept, 4 rats per cage, in a reversed lighting regime (12:12 hours, lights off at 5.00 h), with free access to food and water. The rats were pre-selected by being presented with a receptive female at […], i.e. every third day (haying 2 clear days between presentations) until completing 6-7 trials of baseline determination. The animals showing consistently vigorous behaviour (ejaculatory latencies <300 s) were chosen for further experiments. Animals were treated for 3 consecutive days with either vehicle (water) or fluoxetine (20 mg/kg, i.p., in a 2 ml/kg dosing volume). On the fourth day, the animals treated with water received vehicle (veh+veh) and the animals treated with fluoxetine received one of the three following treatments: Compound (1) (15 mg/kg, dissolved in 50% 2-hydroxypropyl-β-cyclodextrin in saline), vehicle (cyclodextrine), or yohimbine (2 mg/kg dissolved in water). All treatments were administered i.p. in a 1 ml/kg volume, 1 h before tests.
For all the sexual behaviour tests, the males were placed in an observation arena (50-60 cm diameter), starting 5 hours into the dark cycle and observed under red illumination. Three to 4 minutes after placing the male in the arena, a receptive female (ovariectomised, bearing a 7 mm Silastic implant of oestradiol benzoate) was introduced to the arena and the following parameters noted: Mount Latency: time (in seconds) taken between introduction of female and first mount. A maximum time of 15 minutes (900 seconds) was allowed, and the test terminated if no mounts were recorded within that time (FIG. 16), Ejaculation Latency: time (in seconds) taken from first intromission to ejaculation. A maximum time of 30 minutes (1800 seconds) was given, and the test terminated if ejaculation was not achieved in that time (FIG. 17), Percentage of males achieving ejaculation within 30 minutes was calculated (FIG. 18).
A one-way ANOVA followed by Dunnett's t test was used to compare the fluoxetine+vehicle group and other groups for mount and ejaculatory latencies. Percentage of animals ejaculating was analysed using a Chi-square test followed by Fisher's test. (*: P<0.05, **: P<0.01, ***: P<0.001; n=15-19).

Where [3] appears, read: oral, 30-100 mg/kg in PEG 200 vehicle.
Where [4] appears, read: p.o., 3-30 mg/kg in 0.5% methyl cellulose.
The mark [5] stands for this setting: Example 31, Compound (2) 10-100 mg/kg oral in PEG200, 1 h.

Broadly, the IC50 is the concentration needed to halve the response being measured. High values mean a need for much substance, low ones inhibition by little substance.

T1 sequence (P28336 whole entry): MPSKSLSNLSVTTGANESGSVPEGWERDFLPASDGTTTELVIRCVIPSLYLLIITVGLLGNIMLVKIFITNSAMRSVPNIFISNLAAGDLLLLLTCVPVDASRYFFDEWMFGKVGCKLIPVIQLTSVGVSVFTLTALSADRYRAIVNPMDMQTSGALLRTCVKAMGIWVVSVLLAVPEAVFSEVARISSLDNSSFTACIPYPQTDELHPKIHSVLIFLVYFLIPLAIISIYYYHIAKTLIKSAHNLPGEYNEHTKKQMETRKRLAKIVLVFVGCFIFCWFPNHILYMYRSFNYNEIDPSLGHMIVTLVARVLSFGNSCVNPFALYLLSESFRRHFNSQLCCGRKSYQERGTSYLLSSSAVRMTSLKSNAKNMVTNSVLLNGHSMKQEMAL

In turn, `C[C@@](Cc1c[nH]c2ccccc12)(NS(=O)(=O)c1cc(Cl)sc1Cl)C(=O)NCC1(c2ccccn2)CCCCC1` [Example 157] gave an IC50 on human NMB receptor (BB1) of 214 nM.
With `COc1ccc(C2(CNC(=O)[C@](C)(Cc3c[nH]c4ccccc34)Nc3nc(-c4ccc([N+](=O)[O-])cc4)co3)CCCCC2)nc1` [Example 9, (S)-3-(1H-Indol-3-yl)-N-[1-(5-methoxy-pridin-2-yl)-cyclohexylmethyl]-2-methyl-2-[4-(4-nitro-phenyl)-oxazol-2-ylamino]-propionamide], the “increase in potency compared to the oral results in the PEG200 vehicle” value in assay [1] (MED in 0.5% methyl cellulose vs MED in PEG200, p.o.) is on record as 10 fold. Besides, in assay [1] (setting [3]), the “MED, percentage of time spent investigating the male stimulus (proceptivity)” value is on record as 100 mg/kg and the “percentage of time spent investigating the male stimulus (proceptivity)” value is reported as “increased the percentage of time spent investigating the male stimulus”. In assay [1] (setting [4]), the “MED, percentage of time spent investigating the male stimulus (proceptivity)” value was 10 mg/kg and the “percentage of time spent investigating the male stimulus (proceptivity)” value is “increased the percentage of time spent investigating the male stimulus”. Moreover, the “lordosis quotient (LQ) compared to LQ before administration” value in assay [2] (setting [5]) is reported as “dose-dependently (10-100 mg/kg) increased the LQ”. For the same compound, in assay [2] (Example 31, single oral administration 10-100 mg/kg in PEG200, 1 h after administration), the “MED, increase of lordosis quotient (LQ)” value stood at 100 mg/kg.
For the compound `COC(=O)[C@@H]1[C@H]2C[C@H]3c4[nH]c5ccccc5c4CCN3C[C@@H]2CC[C@@H]1O` [Yohimbine, yohimbine], in the assay with Sprague Dawley male rats, the Ejaculation latency result is recorded as “did not reach significance”, the Mount latency result is recorded as “did not reach significance” and the “percentage of animals ejaculating (within 30 minutes)” value is listed as “did not reach significance”.
As to `Cc1ccccc1CC(=O)N[C@@](C)(Cc1c[nH]c2ccccc12)C(=O)NCC1(c2ccccn2)CCCCC1` [Example 51, (S)-3-(1H-Indol-3-yl)-2-methyl-N-(1-pyridin-2-yl-cyclohexylmethyl)-2-(2-o-tolyl-ethanoylamino)-propionamide], at human NMB receptor (BB1) (Table 3), the IC50 came to 944 nM.
Consider `CCCN1CCC[C@@H]2Cc3nc(N)ncc3C[C@H]21` [quinelorane, reference compound], for which the “lordosis quotient (LQ) compared to LQ before administration” value is listed as “significantly (P<0.01) increased the LQ” in assay [2] (Example 2, Compound (1) 10 mg/kg i.p., 1 h) and “significantly (P<0.01) increased the LQ” in assay [2] (setting [5]).
In turn, “C-Dimethylamino-N—{(S)-2-(1H-indol-3-yl)-1-methyl-1-[(1-pyridin-2-yl-cyclohexyl-methyl)-carbamoyl]-ethyl}-benzamide [Example 48]” showed an IC50 on human NMB receptor (BB1) (Table 3) of 716 nM.
